Consider 10 molecules from publication PMC2903443 (Journal of medicinal chemistry, 2010).

Molecules are shown by their SMILES. Like-named read-outs stand apart in the source and are kept apart here.

The target of assay [1] is T1, mtIMPDH (Mycobacterium tuberculosis, UniProt P9WKI7). Description: biochemical. The format is biochemical.
Assay [2] deals with T1, mtIMPDH. The format is biochemical.
The target in assay [3] is hIMPDH1 (Homo sapiens, UniProt P20839). As to the kind of experiment: IMPDH inhibition assay. The format is biochemical. As to conditions: hIMPDHs, isoform not specified; relative to compound 6.
The target in assay [4] is T1, mtIMPDH. Description: biochemical.
Assay [5] relates to human-type 2 IMPDH. The following applies: cited from earlier work.
In assay [6] the test system is human-type 1 IMPDH. The following applies: cited from earlier work.

T1 sequence (P9WKI7 whole entry, looked up): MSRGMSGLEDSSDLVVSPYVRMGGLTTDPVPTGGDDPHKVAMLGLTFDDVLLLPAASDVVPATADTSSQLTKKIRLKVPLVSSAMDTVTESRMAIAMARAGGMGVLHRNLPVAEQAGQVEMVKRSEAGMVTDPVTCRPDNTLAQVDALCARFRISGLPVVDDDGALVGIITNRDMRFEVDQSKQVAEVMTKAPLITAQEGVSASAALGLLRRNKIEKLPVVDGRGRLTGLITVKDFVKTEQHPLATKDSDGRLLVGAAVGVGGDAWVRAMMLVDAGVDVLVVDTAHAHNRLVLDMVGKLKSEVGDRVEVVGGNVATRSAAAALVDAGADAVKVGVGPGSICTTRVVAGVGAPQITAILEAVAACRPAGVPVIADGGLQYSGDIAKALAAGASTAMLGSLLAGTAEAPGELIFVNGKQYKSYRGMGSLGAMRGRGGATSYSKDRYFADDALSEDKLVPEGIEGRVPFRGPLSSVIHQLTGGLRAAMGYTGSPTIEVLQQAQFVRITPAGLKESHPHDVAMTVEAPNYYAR
Sequence of hIMPDH1 (P20839 whole entry, canonical isoform): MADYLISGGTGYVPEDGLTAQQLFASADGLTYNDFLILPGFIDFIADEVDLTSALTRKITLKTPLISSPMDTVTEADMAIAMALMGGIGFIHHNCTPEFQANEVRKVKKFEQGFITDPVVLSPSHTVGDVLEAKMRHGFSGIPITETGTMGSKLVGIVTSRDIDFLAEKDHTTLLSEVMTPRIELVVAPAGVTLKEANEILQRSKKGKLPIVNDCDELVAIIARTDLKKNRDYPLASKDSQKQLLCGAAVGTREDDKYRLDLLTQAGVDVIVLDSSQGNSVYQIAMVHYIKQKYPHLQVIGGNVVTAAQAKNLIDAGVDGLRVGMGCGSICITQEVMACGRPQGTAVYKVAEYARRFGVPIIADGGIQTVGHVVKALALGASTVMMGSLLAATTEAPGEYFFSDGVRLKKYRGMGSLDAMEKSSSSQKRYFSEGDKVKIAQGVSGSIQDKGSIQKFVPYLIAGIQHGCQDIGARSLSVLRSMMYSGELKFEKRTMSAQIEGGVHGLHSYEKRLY

In assay [1] (fit of Ki^app against mtIMPDH), `COc1c(C)c2c(c(O)c1C/C=C(\C)CCC(=O)O)C(=O)OC2` [Compound 1, Mycophenolic acid] returned a Hill-slope of 1.5. Further, in assay [1] (reaction buffer containing 0.1% Trition X-100, compared with buffer without), the “Ki^app value against mtIMPDH with detergent” value is given as “not affected”.

What is called Ki is a dissociation constant, usually derived from enzyme kinetics or from competition with a known ligand. Molecule `C#Cc1nc(N)c2ncn([C@@H]3O[C@H](CNS(=O)(=O)CS(=O)(=O)NCCc4c(O)c5c(c(C)c4OC)COC5=O)[C@@H](O)[C@H]3O)c2n1` [Compound 5c] returned a Ki in assay [1] of more than 100 µM.

The molecule `COc1c(C)c2c(c(O)c1C/C=C(\C)COP(=O)(O)CP(=O)(O)OC[C@H]1O[C@@H](n3cnc4c(N)ncnc43)[C@H](O)[C@@H]1O)C(=O)OC2` [Compound 4] registered a Ki in assay [1] of more than 100 µM.

On to `COc1c(C)c2c(c(O)c1CCNS(=O)(=O)CS(=O)(=O)NC[C@H]1O[C@@H](n3cnc4c(N)nc(-c5ccccc5)nc43)[C@H](O)[C@@H]1O)C(=O)OC2` [Compound 5b], for which the Ki in assay [1] is more than 100 µM.

`COc1c(C)c2c(c(O)c1C/C=C(\C)Cn1cc(COC[C@H]3O[C@@H](n4cnc5c(N)ncnc54)[C@H](O)[C@@H]3O)nn1)C(=O)OC2` [Compound 9, 6-((E)-4-(4-(Adenosin-5′-yl)methyl-1H-1,2,3-triazol-1-yl)-3-methylbut-2-en-1-yl)-7-hydroxy-5-methoxy-4-methylisobenzofuran-1(3H)-one]: the “activity against mtIMPDH (in words)” value in assay [1] is “significant inhibition”. The “uncompetitive Kiu vs. IMP” value in assay [2] (IMP varied 1.4 μM to 1 mM, NAD fixed 0.5 mM, mtIMPDH […]) was 2.2 ± 0.1 µM. Besides, the “uncompetitive Kiu vs. NAD” value in assay [2] (NAD varied 94 μM to 3 mM, IMP fixed 100 μM, mtIMPDH […]) was 1.5 ± 0.1 µM. Also, in assay [2] (with respect to both NAD and IMP), the mode of inhibition result is “uncompetitive”.

`COc1c(C)c2c(c(O)c1CCOP(=O)(O)CP(=O)(O)OC[C@H]1O[C@@H](n3cnc4c(N)nc(-c5ccccc5)nc43)[C@H](O)[C@@H]1O)C(=O)OC2` [Compound 3b] came in with a Ki in assay [1] of more than 100 µM.

`COc1c(C)c2c(c(O)c1CCNCc1cn(C[C@H]3O[C@@H](n4cnc5c(N)ncnc54)[C@H](O)[C@@H]3O)nn1)C(=O)OC2` [Compound 6, 6-(2-(((1-(5′-Deoxy-adenosin-5′-yl)-1H-1,2,3-triazol-4-yl)methyl)amino)ethyl)-7-hydroxy-5-methoxy-4-methylisobenzofuran-1(3H)-one] showed a Ki in assay [1] of more than 100 µM.

`COc1c(C)c2c(c(O)c1CCn1cc(COC[C@H]3O[C@@H](n4cnc5c(N)ncnc54)[C@H](O)[C@@H]3O)nn1)C(=O)OC2` [Compound 8, 6-(2-(4-(Adenosin-5′-yl)methyl-1H-1,2,3-triazol-1-yl)ethyl)-7-hydroxy-5-methoxy-4-methylisobenzofuran-1(3H)-one] returned a Ki in assay [1] of more than 100 µM. The “fold more potent than compound 6” value in assay [3] is recorded as 10 fold.

What is called Km is the substrate concentration at which the rate is half of its maximum. Consider `NC(=O)c1ccc[n+]([C@@H]2O[C@H](COP(=O)([O-])OP(=O)(O)OC[C@H]3O[C@@H](n4cnc5c(N)ncnc54)[C@H](O)[C@@H]3O)[C@@H](O)[C@H]2O)c1` [NAD, nicotinamide adenine dinucleotide], for which the Ki in assay [4] is 5000 ± 600 µM; in assay [5] (read-out: Ki (NAD), ref [27]), 590 ± 20 µM; in assay [6] (read-out: Ki (NAD), ref [28]), 2000 ± 600 µM. For the same molecule, the Km was 6 ± 1 µM in assay [5] (read-out: KM (NAD), ref [27]) and 70 ± 10 µM in assay [6] (read-out: KM (NAD), ref [28]).

Molecule `CCc1nc(N)c2ncn([C@@H]3O[C@H](CNS(=O)(=O)CS(=O)(=O)NCCc4c(O)c5c(c(C)c4OC)COC5=O)[C@@H](O)[C@H]3O)c2n1` [Compound 5d] gave a Ki in assay [1] of more than 100 µM.
